Experimental data from PubChem BioAssay (NCI).
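How tested: cells in 96-well plates exposed to compound for 48 hours at five concentrations. TGI: total growth inhibition.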

Experiments:
Assay in all cases: NCI-60 cell line screen, 48 h
RPMI-8226 leukemia = tested on: RPMI-8226 leukemia
SK-MEL-28 melanoma = tested on: SK-MEL-28 melanoma
OVCAR-3 ovarian = tested on: OVCAR-3 ovarian
OVCAR-5 ovarian = tested on: OVCAR-5 ovarian
UACC-257 melanoma = tested on: UACC-257 melanoma
EKVX NSCLC = tested on: EKVX NSCLC
CCRF-CEM leukemia = tested on: CCRF-CEM leukemia
IGROV1 ovarian = tested on: IGROV1 ovarian
HCT-15 colon = tested on: HCT-15 colon
HL-60(TB) leukemia = tested on: HL-60(TB) leukemia
COLO 205 colon = tested on: COLO 205 colon
MDA-MB-231 breast = tested on: MDA-MB-231 breast
MCF7 breast = tested on: MCF7 breast
SK-OV-3 ovarian = tested on: SK-OV-3 ovarian
LOX IMVI melanoma = tested on: LOX IMVI melanoma
M14 melanoma = tested on: M14 melanoma
K-562 leukemia = tested on: K-562 leukemia
MDA-N = tested on: MDA-N
NCI-H460 lung = tested on: NCI-H460 lung
BT-549 breast = tested on: BT-549 breast
HCT-116 colon = tested on: HCT-116 colon
OVCAR-8 ovarian = tested on: OVCAR-8 ovarian
SN12C renal = tested on: SN12C renal
SK-MEL-5 melanoma = tested on: SK-MEL-5 melanoma
NCI-H23 lung = tested on: NCI-H23 lung
MDA-MB-435 = tested on: MDA-MB-435
U251 CNS = tested on: U251 CNS
786-0 renal = tested on: 786-0 renal
HCC-2998 colon = tested on: HCC-2998 colon
ACHN renal = tested on: ACHN renal
TK-10 renal = tested on: TK-10 renal
A498 renal = tested on: A498 renal
RXF 393 renal = tested on: RXF 393 renal
SF-539 CNS = tested on: SF-539 CNS
T-47D breast = tested on: T-47D breast
SF-295 CNS = tested on: SF-295 CNS
PC-3 prostate = tested on: PC-3 prostate
UACC-62 melanoma = tested on: UACC-62 melanoma
DU-145 prostate = tested on: DU-145 prostate
NCI-H226 lung = tested on: NCI-H226 lung
NCI/ADR-RES ovarian = tested on: NCI/ADR-RES ovarian
A549 NSCLC = tested on: A549 NSCLC
MALME-3M melanoma = tested on: MALME-3M melanoma
SNB-19 CNS = tested on: SNB-19 CNS
HOP-62 NSCLC = tested on: HOP-62 NSCLC
HT29 colon = tested on: HT29 colon
SNB-75 CNS = tested on: SNB-75 CNS
NCI-H522 lung = tested on: NCI-H522 lung
CAKI-1 renal = tested on: CAKI-1 renal
OVCAR-4 ovarian = tested on: OVCAR-4 ovarian
SR leukemia = tested on: SR leukemia
SF-268 CNS = tested on: SF-268 CNS
HOP-92 NSCLC = tested on: HOP-92 NSCLC
MOLT-4 leukemia = tested on: MOLT-4 leukemia
HS 578T breast = tested on: HS 578T breast
SW-620 colon = tested on: SW-620 colon
KM12 colon = tested on: KM12 colon
UO-31 renal = tested on: UO-31 renal

CCOC(=O)/C(=C\c1c[nH]c2ccccc12)P(=O)(OCC)OCC
TGI (RPMI-8226 leukemia): 76.8 µM
TGI (SK-MEL-28 melanoma): 94.3 µM
TGI (OVCAR-3 ovarian): 59.9 µM
TGI (OVCAR-5 ovarian): 87.9 µM
TGI (UACC-257 melanoma): > 100 µM
TGI (EKVX NSCLC): > 100 µM
TGI (CCRF-CEM leukemia): 66.9 µM
TGI (IGROV1 ovarian): > 100 µM
TGI (HCT-15 colon): 72.6 µM
TGI (HL-60(TB) leukemia): 62 µM
TGI (COLO 205 colon): 44.1 µM
TGI (MDA-MB-231 breast): 68.4 µM
TGI (MCF7 breast): > 100 µM
TGI (SK-OV-3 ovarian): 90.4 µM
TGI (LOX IMVI melanoma): 40.3 µM
TGI (M14 melanoma): > 100 µM
TGI (K-562 leukemia): > 100 µM
TGI (MDA-N): > 100 µM
TGI (NCI-H460 lung): 61.9 µM
TGI (BT-549 breast): 62.7 µM
TGI (HCT-116 colon): > 100 µM
TGI (OVCAR-8 ovarian): 53.5 µM
TGI (SN12C renal): > 100 µM
TGI (SK-MEL-5 melanoma): > 100 µM
TGI (NCI-H23 lung): 71.5 µM
TGI (MDA-MB-435): > 100 µM
TGI (U251 CNS): > 100 µM
TGI (786-0 renal): 99.6 µM
TGI (HCC-2998 colon): > 100 µM
TGI (ACHN renal): > 100 µM
TGI (TK-10 renal): > 100 µM
TGI (A498 renal): 76.1 µM
TGI (RXF 393 renal): > 100 µM
TGI (SF-539 CNS): 43.6 µM
TGI (T-47D breast): > 100 µM
TGI (SF-295 CNS): > 100 µM
TGI (PC-3 prostate): 66.6 µM
TGI (UACC-62 melanoma): > 100 µM
TGI (DU-145 prostate): > 100 µM
TGI (NCI-H226 lung): 77.5 µM
TGI (NCI/ADR-RES ovarian): > 100 µM
TGI (A549 NSCLC): > 100 µM
TGI (MALME-3M melanoma): > 100 µM
TGI (SNB-19 CNS): > 100 µM
TGI (HOP-62 NSCLC): > 100 µM
TGI (HT29 colon): 77.5 µM
TGI (SNB-75 CNS): 75.6 µM
TGI (NCI-H522 lung): 89.9 µM
TGI (CAKI-1 renal): > 100 µM
TGI (OVCAR-4 ovarian): 89.4 µM
TGI (SR leukemia): 61.1 µM
TGI (SF-268 CNS): > 100 µM
TGI (HOP-92 NSCLC): 77.1 µM
TGI (MOLT-4 leukemia): > 100 µM
TGI (HS 578T breast): > 100 µM
TGI (SW-620 colon): > 100 µM
TGI (KM12 colon): > 100 µM

Cc1nc(C)c(N2CCN(Cc3ccccc3)CC2)c(=O)[nH]1
TGI (RPMI-8226 leukemia): > 100 µM
TGI (SK-MEL-28 melanoma): > 100 µM
TGI (OVCAR-3 ovarian): > 100 µM
TGI (UACC-257 melanoma): > 100 µM
TGI (EKVX NSCLC): > 100 µM
TGI (CCRF-CEM leukemia): > 100 µM
TGI (IGROV1 ovarian): > 100 µM
TGI (HCT-15 colon): > 100 µM
TGI (HL-60(TB) leukemia): > 100 µM
TGI (COLO 205 colon): > 100 µM
TGI (MDA-MB-231 breast): > 100 µM
TGI (MCF7 breast): > 100 µM
TGI (SK-OV-3 ovarian): > 100 µM
TGI (LOX IMVI melanoma): > 100 µM
TGI (M14 melanoma): > 100 µM
TGI (K-562 leukemia): > 100 µM
TGI (MDA-N): > 100 µM
TGI (NCI-H460 lung): > 100 µM
TGI (BT-549 breast): > 100 µM
TGI (HCT-116 colon): > 100 µM
TGI (OVCAR-8 ovarian): > 100 µM
TGI (SN12C renal): > 100 µM
TGI (SK-MEL-5 melanoma): > 100 µM
TGI (NCI-H23 lung): > 100 µM
TGI (MDA-MB-435): > 100 µM
TGI (U251 CNS): > 100 µM
TGI (786-0 renal): > 100 µM
TGI (HCC-2998 colon): > 100 µM
TGI (ACHN renal): > 100 µM
TGI (TK-10 renal): > 100 µM
TGI (A498 renal): > 100 µM
TGI (RXF 393 renal): > 100 µM
TGI (SF-539 CNS): > 100 µM
TGI (T-47D breast): > 100 µM
TGI (SF-295 CNS): > 100 µM
TGI (PC-3 prostate): > 100 µM
TGI (UACC-62 melanoma): > 100 µM
TGI (DU-145 prostate): > 100 µM
TGI (NCI-H226 lung): > 100 µM
TGI (NCI/ADR-RES ovarian): > 100 µM
TGI (A549 NSCLC): > 100 µM
TGI (MALME-3M melanoma): > 100 µM
TGI (SNB-19 CNS): > 100 µM
TGI (UO-31 renal): > 100 µM
TGI (HOP-62 NSCLC): > 100 µM
TGI (HT29 colon): > 100 µM
TGI (NCI-H522 lung): > 100 µM
TGI (OVCAR-4 ovarian): > 100 µM
TGI (SR leukemia): > 100 µM
TGI (SF-268 CNS): > 100 µM
TGI (HOP-92 NSCLC): > 100 µM
TGI (MOLT-4 leukemia): > 100 µM
TGI (HS 578T breast): > 100 µM
TGI (SW-620 colon): > 100 µM
TGI (KM12 colon): > 100 µM
